Source: ChEMBL document CHEMBL4321792, “Discovery of 4-Methylquinazoline Based PI3K Inhibitors for the Potential Treatment of Idiopathic Pulmonary Fibrosis” (J Med Chem, 2019)
Calls of active or inactive are those of the source. No cut-off for these calls is given here.

Experiments:
Mus musculus [1] = test: (§1) Antifibrotic activity in bleomycin-induced C57BL/6 mouse model of pulmonary fibrosis assessed as reduction in lung index at 30 mg/kg, po administered thrice daily for 18 days starting from 10 days post-bleomycin challenge and measured post last dose; type: functional, organism-based
Mus musculus [2] = test: Antifibrotic activity in bleomycin-induced C57BL/6 mouse model of pulmonary fibrosis assessed as reduction in respiratory system resistance at 30 mg/kg, po administered thrice daily for 18 days starting from 10 days post-bleomycin challenge and measured post last dose; type: functional, organism-based
Mus musculus [3] = test: Antifibrotic activity in bleomycin-induced C57BL/6 mouse model of pulmonary fibrosis assessed as reduction in inspiratory capacity at 30 mg/kg, po administered thrice daily for 18 days starting from 10 days post-bleomycin challenge and measured post last dose; type: functional, organism-based
Mus musculus [4] = test: Antifibrotic activity in bleomycin-induced C57BL/6 mouse model of pulmonary fibrosis assessed as reduction in respiratory system elastance at 30 mg/kg, po administered thrice daily for 18 days starting from 10 days post-bleomycin challenge and measured post last dose; type: functional, organism-based
Mus musculus [5] = test: Antifibrotic activity in bleomycin-induced C57BL/6 mouse model of pulmonary fibrosis assessed as reduction in respiratory system compliance at 30 mg/kg, po administered thrice daily for 18 days starting from 10 days post-bleomycin challenge and measured post last dose; type: functional, organism-based
Mus musculus [6] = test: as §1, with “alpha-SMA level” for “index”, “dose by immunostaining-based histopathological analysis” for “dose”; type: functional, organism-based
Mus musculus [7] = test: Antifibrotic activity in bleomycin-induced C57BL/6 mouse model of pulmonary fibrosis assessed as reduction in lung hydroxyproline level at 30 mg/kg, po administered thrice daily for 18 days starting from 10 days post-bleomycin challenge and measured post last dose; type: functional, organism-based
Mus musculus [8] = test: Antifibrotic activity in bleomycin-induced C57BL/6 mouse model of pulmonary fibrosis assessed as reduction in lung fibronectin level at 30 mg/kg, po administered thrice daily for 18 days starting from 10 days post-bleomycin challenge and measured post last dose by Western blot analysis; type: functional, organism-based
Mus musculus [9] = test: as §1, with “damage” for “index”, “dose by H and E staining-based histopathological analysis” for “dose”; type: functional, organism-based
Mus musculus [10] = test: as §1, with “collagen fiber deposition” for “lung index”, “dose by Masson staining-based histopathological analysis” for “dose”; type: functional, organism-based
[11] = target: PI3-kinase p110-alpha/p85-alpha (Homo sapiens, UniProt P42336); test: Inhibition of recombinant human N-terminal FLAG-tagged full-length p110alpha/human p85alpha expressed in Sf9 insect cells using PIP2 as substrate by kinase-glo assay
[12] = Antifibrotic activity against mouse Mlg2908 cells assessed as reduction in cell viability measured after 72 hrs by MTT assay; type: functional, cell-based
[13] = Apparent permeability across apical to basolateral side in human Caco2 cells measured after 90 mins by LC-MS/MS analysis; conditions: Caco-2
[14] = Apparent permeability across basolateral to apical side in human Caco2 cells measured after 90 mins by LC-MS/MS analysis; conditions: Caco-2
PI3K p110 beta/p85 alpha = PI3K p110 beta/p85 alpha (Homo sapiens, UniProt P42338); test: Inhibition of recombinant human N-terminal FLAG-tagged full-length p110beta/human p85alpha expressed in Sf9 insect cells using PIP2 as substrate by ADP-glo assay
[15] = target: Phosphatidylinositol 4,5-bisphosphate 3-kinase catalytic subunit gamma isoform (Homo sapiens, UniProt P48736); test: Inhibition of recombinant human N-terminal His-tagged full-length p120gamma expressed in Sf9 insect cells using PIP2 as substrate by ADP-glo assay
[16] = target: PI3-kinase p110-delta/p85-alpha (Homo sapiens, UniProt O00329); test: Inhibition of recombinant human N-terminal GST-tagged full-length p110delta/human p85alpha expressed in Sf9 insect cells using PIP2 as substrate by ADP-glo assay
Mus musculus [17] = species: Mus musculus; test: Inhibition of class 1 PI3K in mouse Mlg2908 cells assessed as reduction in AKT phosphorylation at S473 residue measured after 3 hrs by Western blot analysis; type: cell-based
Mus musculus [18] = species: Mus musculus; test: Inhibition of class 1 PI3K in mouse Mlg2908 cells assessed as reduction in AKT phosphorylation at T308 residue measured after 3 hrs by Western blot analysis; type: cell-based
Mus musculus [19] = species: Mus musculus; test: Inhibition of class 1 PI3K in mouse Mlg2908 cells assessed as reduction in p70S6K phosphorylation measured after 3 hrs by Western blot analysis; type: cell-based
Mus musculus [20] = species: Mus musculus; test: Inhibition of class 1 PI3K in mouse Mlg2908 cells assessed as reduction in S6RP phosphorylation measured after 3 hrs by Western blot analysis; type: cell-based
[21] = Half life in ICR mouse at 0.5 mg/kg, iv by LC-MS/SM analysis; type: ADME, organism-based; conditions: in vivo
[22] = Clearance in ICR mouse at 0.5 mg/kg, iv by LC-MS/SM analysis; type: ADME, organism-based; conditions: in vivo
[23] = Volume of distribution at steady state in ICR mouse at 0.5 mg/kg, iv by LC-MS/SM analysis; type: ADME, organism-based; conditions: in vivo, read-out: Vdss
[24] = AUC (0 to infinity) in ICR mouse at 0.5 mg/kg, iv by LC-MS/SM analysis; type: ADME, organism-based; set-up: dose 0.5 mg/kg, time infinity, route intravenous; conditions: in vivo
[25] = Half life in ICR mouse at 5 mg/kg, po by LC-MS/SM analysis; type: ADME, organism-based; conditions: in vivo
[26] = Cmax in ICR mouse at 5 mg/kg, po by LC-MS/SM analysis; type: ADME, organism-based; set-up: dose 5 mg/kg, route oral; conditions: in vivo
[27] = AUC (0 to infinity) in ICR mouse at 5 mg/kg, po by LC-MS/SM analysis; type: ADME, organism-based; set-up: dose 5 mg/kg, route oral, time infinity; conditions: in vivo
[28] = Oral bioavailability in ICR mouse at 5 mg/kg by LC-MS/SM analysis; type: ADME, organism-based; conditions: in vivo
[29] = Kinetic solubility of the compound in pH 7.4 incubated for 120 mins by HPLC-MS/MS analysis; conditions: buffer, pH 7.4, 2 h
[30] = simulated gi fluid, pH 6.5, 1 h
Description: Thermodynamic solubility of the compound in pH 6.5 FaSSIF incubated for 1 hr by LC-MS/MS analysis

[31] = buffer, pH 7.4, 1 h
Description: Thermodynamic solubility of the compound in pH 7.4 PBS incubated for 1 hr by LC-MS/MS analysis

Chain of PI3-kinase p110-alpha/p85-alpha (P27986 whole entry): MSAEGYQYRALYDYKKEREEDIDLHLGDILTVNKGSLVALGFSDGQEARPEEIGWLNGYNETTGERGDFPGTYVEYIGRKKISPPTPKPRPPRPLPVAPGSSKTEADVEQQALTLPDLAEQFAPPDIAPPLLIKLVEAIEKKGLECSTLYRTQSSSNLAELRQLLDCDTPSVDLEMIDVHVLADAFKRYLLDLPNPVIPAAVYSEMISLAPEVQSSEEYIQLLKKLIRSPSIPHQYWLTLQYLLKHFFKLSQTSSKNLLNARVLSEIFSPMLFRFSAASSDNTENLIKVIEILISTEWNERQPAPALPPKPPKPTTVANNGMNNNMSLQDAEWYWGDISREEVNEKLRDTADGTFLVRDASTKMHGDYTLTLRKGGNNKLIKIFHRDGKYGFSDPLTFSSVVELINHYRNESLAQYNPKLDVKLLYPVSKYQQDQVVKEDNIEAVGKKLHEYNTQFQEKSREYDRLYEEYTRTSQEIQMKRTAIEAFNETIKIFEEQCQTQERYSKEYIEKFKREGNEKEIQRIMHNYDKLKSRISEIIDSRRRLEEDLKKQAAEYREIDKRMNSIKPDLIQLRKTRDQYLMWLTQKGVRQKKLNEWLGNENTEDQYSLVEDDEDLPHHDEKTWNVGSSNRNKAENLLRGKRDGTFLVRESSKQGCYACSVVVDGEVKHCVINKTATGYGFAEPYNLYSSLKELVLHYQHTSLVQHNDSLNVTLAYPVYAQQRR
Chain of PI3-kinase p110-alpha/p85-alpha (P42336 whole entry): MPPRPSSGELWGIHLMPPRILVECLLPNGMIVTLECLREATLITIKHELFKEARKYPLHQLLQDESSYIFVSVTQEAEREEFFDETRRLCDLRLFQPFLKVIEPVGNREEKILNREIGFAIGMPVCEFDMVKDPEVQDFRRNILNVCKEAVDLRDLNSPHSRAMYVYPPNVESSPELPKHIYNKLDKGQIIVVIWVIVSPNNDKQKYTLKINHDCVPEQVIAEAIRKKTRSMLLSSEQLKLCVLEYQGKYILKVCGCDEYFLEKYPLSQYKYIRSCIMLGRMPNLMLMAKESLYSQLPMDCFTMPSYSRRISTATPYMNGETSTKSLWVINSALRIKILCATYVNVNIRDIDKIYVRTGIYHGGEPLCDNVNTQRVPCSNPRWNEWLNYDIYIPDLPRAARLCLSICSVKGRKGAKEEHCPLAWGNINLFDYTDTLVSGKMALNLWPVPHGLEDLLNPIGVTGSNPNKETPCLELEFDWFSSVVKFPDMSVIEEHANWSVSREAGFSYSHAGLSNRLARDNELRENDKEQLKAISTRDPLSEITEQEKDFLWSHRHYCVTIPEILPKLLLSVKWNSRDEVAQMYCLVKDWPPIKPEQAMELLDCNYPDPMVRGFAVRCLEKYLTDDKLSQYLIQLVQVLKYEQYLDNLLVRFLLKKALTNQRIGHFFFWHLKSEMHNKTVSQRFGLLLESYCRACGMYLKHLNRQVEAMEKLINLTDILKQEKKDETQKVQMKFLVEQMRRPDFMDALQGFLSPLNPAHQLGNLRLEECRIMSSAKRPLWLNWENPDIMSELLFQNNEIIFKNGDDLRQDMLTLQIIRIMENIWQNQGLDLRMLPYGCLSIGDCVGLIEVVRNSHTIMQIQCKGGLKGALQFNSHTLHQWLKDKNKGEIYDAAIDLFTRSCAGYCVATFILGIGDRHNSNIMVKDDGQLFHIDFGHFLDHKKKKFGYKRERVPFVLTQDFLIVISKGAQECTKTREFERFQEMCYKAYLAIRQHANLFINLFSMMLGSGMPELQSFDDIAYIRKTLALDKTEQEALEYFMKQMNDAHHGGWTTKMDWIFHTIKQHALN
Chain of PI3-kinase p110-delta/p85-alpha (P27986 whole entry): as the sequence (P27986 whole entry) above
Chain of PI3-kinase p110-delta/p85-alpha (O00329 whole entry): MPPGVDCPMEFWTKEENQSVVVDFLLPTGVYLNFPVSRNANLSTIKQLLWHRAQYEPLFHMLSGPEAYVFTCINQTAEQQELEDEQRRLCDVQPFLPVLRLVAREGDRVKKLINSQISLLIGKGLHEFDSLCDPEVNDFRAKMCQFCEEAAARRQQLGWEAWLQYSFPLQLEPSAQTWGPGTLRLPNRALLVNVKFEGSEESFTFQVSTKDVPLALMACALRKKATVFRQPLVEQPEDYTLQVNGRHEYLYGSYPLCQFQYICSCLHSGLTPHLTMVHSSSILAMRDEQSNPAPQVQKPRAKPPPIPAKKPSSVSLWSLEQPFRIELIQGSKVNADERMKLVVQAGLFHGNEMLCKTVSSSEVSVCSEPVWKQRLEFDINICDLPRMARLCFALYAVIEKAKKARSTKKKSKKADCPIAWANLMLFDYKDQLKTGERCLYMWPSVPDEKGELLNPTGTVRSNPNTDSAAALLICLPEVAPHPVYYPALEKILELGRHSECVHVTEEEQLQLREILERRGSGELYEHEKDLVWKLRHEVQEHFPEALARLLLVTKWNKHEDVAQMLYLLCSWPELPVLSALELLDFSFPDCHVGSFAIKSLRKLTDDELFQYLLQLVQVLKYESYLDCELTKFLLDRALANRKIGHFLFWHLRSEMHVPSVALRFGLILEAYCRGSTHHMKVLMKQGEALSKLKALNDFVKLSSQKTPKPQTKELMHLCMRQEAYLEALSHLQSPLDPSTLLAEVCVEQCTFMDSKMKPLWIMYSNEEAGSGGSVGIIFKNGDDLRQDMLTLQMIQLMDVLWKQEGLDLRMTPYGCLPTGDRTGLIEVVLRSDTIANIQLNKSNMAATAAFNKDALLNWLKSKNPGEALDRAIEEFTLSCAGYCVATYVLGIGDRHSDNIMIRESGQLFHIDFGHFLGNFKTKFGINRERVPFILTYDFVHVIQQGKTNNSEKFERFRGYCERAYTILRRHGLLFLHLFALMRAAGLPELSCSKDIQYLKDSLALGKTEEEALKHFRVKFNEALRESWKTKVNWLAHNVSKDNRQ
Chain of PI3K p110 beta/p85 alpha (P27986 whole entry, canonical isoform): as the sequence (P27986 whole entry) above
Chain of PI3K p110 beta/p85 alpha (P42338 whole entry, canonical isoform): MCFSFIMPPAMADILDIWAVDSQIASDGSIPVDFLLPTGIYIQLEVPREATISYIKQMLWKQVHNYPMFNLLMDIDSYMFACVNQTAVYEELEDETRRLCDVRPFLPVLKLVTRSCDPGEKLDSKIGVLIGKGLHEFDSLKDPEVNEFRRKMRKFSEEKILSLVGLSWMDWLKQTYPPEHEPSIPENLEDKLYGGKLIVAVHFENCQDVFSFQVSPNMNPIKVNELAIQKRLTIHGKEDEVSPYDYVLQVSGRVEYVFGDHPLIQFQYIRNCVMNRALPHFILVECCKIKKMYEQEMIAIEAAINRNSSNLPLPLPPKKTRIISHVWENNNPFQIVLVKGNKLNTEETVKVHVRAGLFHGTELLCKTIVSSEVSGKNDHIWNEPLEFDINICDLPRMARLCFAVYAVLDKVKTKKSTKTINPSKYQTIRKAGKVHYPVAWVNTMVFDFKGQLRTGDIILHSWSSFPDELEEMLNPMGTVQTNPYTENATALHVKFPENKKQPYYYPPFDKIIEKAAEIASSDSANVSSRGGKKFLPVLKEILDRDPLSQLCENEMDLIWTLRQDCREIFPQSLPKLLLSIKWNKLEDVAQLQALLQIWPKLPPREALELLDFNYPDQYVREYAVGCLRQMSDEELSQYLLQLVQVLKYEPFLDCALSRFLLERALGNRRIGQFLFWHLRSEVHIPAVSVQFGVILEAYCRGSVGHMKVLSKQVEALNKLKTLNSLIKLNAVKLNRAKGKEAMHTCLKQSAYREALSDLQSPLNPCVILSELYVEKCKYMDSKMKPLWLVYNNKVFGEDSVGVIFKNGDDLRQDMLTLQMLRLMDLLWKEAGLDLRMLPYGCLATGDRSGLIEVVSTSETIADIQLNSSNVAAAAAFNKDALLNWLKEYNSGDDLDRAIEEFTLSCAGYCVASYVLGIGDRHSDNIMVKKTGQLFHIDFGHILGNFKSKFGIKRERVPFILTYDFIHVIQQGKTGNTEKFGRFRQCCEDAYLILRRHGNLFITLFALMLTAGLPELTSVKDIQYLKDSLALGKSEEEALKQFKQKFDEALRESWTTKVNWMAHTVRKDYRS
Chain of Phosphatidylinositol 4,5-bisphosphate 3-kinase catalytic subunit gamma isoform (P48736 whole entry, canonical isoform): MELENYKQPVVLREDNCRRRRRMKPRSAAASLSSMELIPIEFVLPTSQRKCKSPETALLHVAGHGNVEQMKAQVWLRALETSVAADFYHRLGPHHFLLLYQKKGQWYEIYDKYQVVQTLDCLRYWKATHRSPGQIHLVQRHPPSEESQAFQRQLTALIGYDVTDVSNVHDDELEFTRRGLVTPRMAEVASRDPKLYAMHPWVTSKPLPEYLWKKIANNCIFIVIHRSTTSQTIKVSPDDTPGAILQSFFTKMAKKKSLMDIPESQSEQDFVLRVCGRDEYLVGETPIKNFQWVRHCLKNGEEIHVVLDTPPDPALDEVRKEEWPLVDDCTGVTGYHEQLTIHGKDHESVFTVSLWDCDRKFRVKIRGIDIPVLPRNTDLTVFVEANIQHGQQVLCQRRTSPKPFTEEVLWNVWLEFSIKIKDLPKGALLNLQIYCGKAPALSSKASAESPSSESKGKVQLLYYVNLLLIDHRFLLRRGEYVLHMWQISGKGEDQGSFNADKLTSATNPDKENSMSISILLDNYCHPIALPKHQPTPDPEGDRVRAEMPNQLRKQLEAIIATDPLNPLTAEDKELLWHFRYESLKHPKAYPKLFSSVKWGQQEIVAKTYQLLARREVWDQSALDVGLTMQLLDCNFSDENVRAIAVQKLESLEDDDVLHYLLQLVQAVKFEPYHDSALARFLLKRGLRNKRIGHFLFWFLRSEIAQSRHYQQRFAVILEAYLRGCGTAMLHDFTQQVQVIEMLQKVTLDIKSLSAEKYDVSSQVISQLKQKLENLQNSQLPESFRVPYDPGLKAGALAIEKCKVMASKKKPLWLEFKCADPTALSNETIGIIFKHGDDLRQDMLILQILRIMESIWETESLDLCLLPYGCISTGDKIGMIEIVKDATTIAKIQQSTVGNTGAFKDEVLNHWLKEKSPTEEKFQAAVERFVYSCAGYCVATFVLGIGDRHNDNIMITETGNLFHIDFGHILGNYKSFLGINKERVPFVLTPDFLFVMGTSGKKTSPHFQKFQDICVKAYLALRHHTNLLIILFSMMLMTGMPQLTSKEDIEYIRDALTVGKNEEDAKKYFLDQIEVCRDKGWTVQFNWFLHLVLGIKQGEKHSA

IC50 [11] [nM] | Papp A→B at 1.5 h [13] [×10⁻⁶ cm/s] | Papp B→A at 1.5 h [14] [×10⁻⁶ cm/s] | Compound | IC50 [12] [nM] | further results
 |  |  | Cc1ccc(=O)n(-c2ccccc2)c1 |  | Activity (Mus musculus [1]): Active; Activity (Mus musculus [2]): Active; Activity (Mus musculus [3]): Active; Activity (Mus musculus [4]): Active; Activity (Mus musculus [5]): Active; Activity (Mus musculus [6]): Active; Activity (Mus musculus [7]): Active; Activity (Mus musculus [8]): Active; Activity (Mus musculus [9]): Active; Activity (Mus musculus [10]): Active
0.95 | 34 | 39 | COc1ncc(-c2cc(OCC3CCOC3)c3ncnc(C)c3c2)cc1NS(=O)(=O)c1ccc(F)cc1F (configuration not stated) | 4 | 
2.3 | 13 | 33 | COc1ncc(-c2cc(OCCN3CCOCC3)c3ncnc(C)c3c2)cc1NS(=O)(=O)c1ccc(F)cc1F | 210 | 
0.92 | 31 | 33 | COc1ncc(-c2cc(OCC3CCOCC3)c3ncnc(C)c3c2)cc1NS(=O)(=O)c1ccc(F)cc1F | 8 | 
5.3 | 10 | 51 | COc1ncc(-c2cc(OCCN(C)C)c3ncnc(C)c3c2)cc1NS(=O)(=O)c1ccc(F)cc1F | 460 | 
 |  |  | C[C@H](NC(=O)c1c(N)nn2cccnc12)c1cc2cccc(C#Cc3cnn(C)c3)c2c(=O)n1-c1ccccc1 [EGANELISIB] | 980 | 
6.8 | 7.5 | 38 | COc1ncc(-c2cc(OCCN3CCCC3)c3ncnc(C)c3c2)cc1NS(=O)(=O)c1ccc(F)cc1F | 1300 | 
1.5 | 30 | 23 | COc1ncc(-c2cc(OCC3CC3)c3ncnc(C)c3c2)cc1NS(=O)(=O)c1ccc(F)cc1F | 20 | 
0.89 | 31 | 22 | COc1ncc(-c2cc(OC3CCOC(C)(C)C3)c3ncnc(C)c3c2)cc1NS(=O)(=O)c1ccc(F)cc1F (configuration not stated) | 2 | 
 |  |  | C[C@H](Nc1ncnc2nc[nH]c12)c1cc2cccc(Cl)c2c(=O)n1-c1ccccc1 [DUVELISIB] | 6900 | 
 |  |  | COc1ncc(-c2ccc3nccc(-c4ccnnc4)c3c2)cc1NS(=O)(=O)c1ccc(F)cc1F [OMIPALISIB] | 4 | 
1.7 | 34 | 17 | COc1ncc(-c2cc(OC(F)F)c3ncnc(C)c3c2)cc1NS(=O)(=O)c1ccc(F)cc1F | 130 | 
 |  |  | Cc1nc(NC(=O)N2CCC[C@H]2C(N)=O)sc1-c1ccnc(C(C)(C)C(F)(F)F)c1 [ALPELISIB] | 3500 | 
1 | 44 | 30 | COc1ncc(-c2cc(OC3CCC3)c3ncnc(C)c3c2)cc1NS(=O)(=O)c1ccc(F)cc1F | 3 | 
31 | 39 | 31 | COc1ccc(-c2cc(OC3CCOCC3)c3ncnc(C)c3c2)cn1 | 17000 | 
1.5 | 16 | 21 | COc1ncc(-c2cc(OC3CCCCC3)c3ncnc(C)c3c2)cc1NS(=O)(=O)c1ccc(F)cc1F | 33 | 
 |  |  | CC[C@H](Nc1ncnc2[nH]cnc12)c1nc2cccc(F)c2c(=O)n1-c1ccccc1 [IDELALISIB] | > 20000 | 
 |  |  | Cc1c(Cn2c(C)nc3c(C(=O)O)cc(N4CCOCC4)cc32)cccc1C(F)(F)F [GSK-2636771] | > 20000 | 
1.2 | 35 | 31 | COc1ncc(-c2cc(OC)c3ncnc(C)c3c2)cc1NS(=O)(=O)c1ccc(F)cc1F | 130 | 
 |  |  | COc1ncc(-c2cc(OC3CCOCC3)c3nc(N)nc(C)c3c2)cc1NS(=O)(=O)c1ccc(F)cc1F | 140 | 
2.1 | 4.5 | 46 | COc1ncc(-c2cc(OC3CCN(C)CC3)c3ncnc(C)c3c2)cc1NS(=O)(=O)c1ccc(F)cc1F | 230 | 
1.6 | 8.8 | 38 | COc1ncc(-c2cc(OCC3CCN(C)CC3)c3ncnc(C)c3c2)cc1NS(=O)(=O)c1ccc(F)cc1F | 81 | 
2 | 32 | 22 | COc1ncc(-c2cc(OC(C)C)c3ncnc(C)c3c2)cc1NS(=O)(=O)c1ccc(F)cc1F | 13 | 
1 | 28 | 17 | COc1ncc(-c2cc(OC3CCCC3)c3ncnc(C)c3c2)cc1NS(=O)(=O)c1ccc(F)cc1F | 15 | 

Compound | IC50 [11] [nM] | Papp A→B at 1.5 h [13] [×10⁻⁶ cm/s] | Papp B→A at 1.5 h [14] [×10⁻⁶ cm/s] | IC50 [12] [nM] | further results
COc1ncc(-c2cc(O[C@@H]3CCOC3)c3ncnc(C)c3c2)cc1NS(=O)(=O)c1ccc(F)cc1F | 0.88 | 38 | 37 | 10 | IC50 (PI3K p110 beta/p85 alpha): 0.34 nM; IC50 [15]: 1.5 nM; IC50 [16]: 0.35 nM; inhibition (Mus musculus [17]): Dose-dependent effect; inhibition (Mus musculus [18]): Dose-dependent effect; inhibition (Mus musculus [19]): Dose-dependent effect; inhibition (Mus musculus [20]): Dose-dependent effect; half-life [21]: 0.36 h; clearance [22]: 16 mL/min/kg; Vd [23]: 0.5 L/kg; AUC(0-inf) [24]: 520 ng·h/mL; half-life [25]: 4.08 h; Cmax [26]: 1440 ng/mL; AUC(0-inf) [27]: 3170 ng·h/mL; bioavailability [28]: 58.7%
COc1ncc(-c2cc(OC3CCOCC3)c3ncnc(C)c3c2)cc1NS(=O)(=O)c1ccc(F)cc1F | 0.6 | 42 | 39 | 3 | IC50 (PI3K p110 beta/p85 alpha): 0.54 nM; IC50 [15]: 2.1 nM; IC50 [16]: 0.52 nM; inhibition (Mus musculus [17]): Dose-dependent effect; inhibition (Mus musculus [18]): Dose-dependent effect; inhibition (Mus musculus [19]): Dose-dependent effect; inhibition (Mus musculus [20]): Dose-dependent effect; Kinetic_solubility [29]: Soluble; half-life [21]: 0.92 h; clearance [22]: 4.58 mL/min/kg; Vd [23]: 0.368 L/kg; AUC(0-inf) [24]: 1820 ng·h/mL; half-life [25]: 5.57 h; Cmax [26]: 1210 ng/mL; AUC(0-inf) [27]: 3240 ng·h/mL; bioavailability [28]: 15.8%; Therm_solubility [30]: Soluble; Therm_solubility [31]: Soluble
